Assay results from ChEMBL document CHEMBL4219045 (Bioorg Med Chem, 2018).
Positions of bridges follow the written chain, without caps; N, C: chain ends. Residues, ends and D or L forms follow the SMILES beside them.

Tests used:
[1] = biological target: Acetylcholine receptor subunit epsilon (Homo sapiens, UniProt Q04844); assay: Inhibition of nAChR epsilon (unknown origin)
[2] = Toxicity in mouse; assay type: organism-based; details: in vivo
[3] = biological target: Sodium channel protein type 2 subunit alpha (Homo sapiens, UniProt Q99250); assay: Inhibition of Nav1.2 (unknown origin) expressed in xenopus oocytes at -80 mV holding potential by two-electrode voltage-clamp method; assay type: cell-based
Sodium channel protein type 2 subunit alpha, sequence (Q99250 whole entry): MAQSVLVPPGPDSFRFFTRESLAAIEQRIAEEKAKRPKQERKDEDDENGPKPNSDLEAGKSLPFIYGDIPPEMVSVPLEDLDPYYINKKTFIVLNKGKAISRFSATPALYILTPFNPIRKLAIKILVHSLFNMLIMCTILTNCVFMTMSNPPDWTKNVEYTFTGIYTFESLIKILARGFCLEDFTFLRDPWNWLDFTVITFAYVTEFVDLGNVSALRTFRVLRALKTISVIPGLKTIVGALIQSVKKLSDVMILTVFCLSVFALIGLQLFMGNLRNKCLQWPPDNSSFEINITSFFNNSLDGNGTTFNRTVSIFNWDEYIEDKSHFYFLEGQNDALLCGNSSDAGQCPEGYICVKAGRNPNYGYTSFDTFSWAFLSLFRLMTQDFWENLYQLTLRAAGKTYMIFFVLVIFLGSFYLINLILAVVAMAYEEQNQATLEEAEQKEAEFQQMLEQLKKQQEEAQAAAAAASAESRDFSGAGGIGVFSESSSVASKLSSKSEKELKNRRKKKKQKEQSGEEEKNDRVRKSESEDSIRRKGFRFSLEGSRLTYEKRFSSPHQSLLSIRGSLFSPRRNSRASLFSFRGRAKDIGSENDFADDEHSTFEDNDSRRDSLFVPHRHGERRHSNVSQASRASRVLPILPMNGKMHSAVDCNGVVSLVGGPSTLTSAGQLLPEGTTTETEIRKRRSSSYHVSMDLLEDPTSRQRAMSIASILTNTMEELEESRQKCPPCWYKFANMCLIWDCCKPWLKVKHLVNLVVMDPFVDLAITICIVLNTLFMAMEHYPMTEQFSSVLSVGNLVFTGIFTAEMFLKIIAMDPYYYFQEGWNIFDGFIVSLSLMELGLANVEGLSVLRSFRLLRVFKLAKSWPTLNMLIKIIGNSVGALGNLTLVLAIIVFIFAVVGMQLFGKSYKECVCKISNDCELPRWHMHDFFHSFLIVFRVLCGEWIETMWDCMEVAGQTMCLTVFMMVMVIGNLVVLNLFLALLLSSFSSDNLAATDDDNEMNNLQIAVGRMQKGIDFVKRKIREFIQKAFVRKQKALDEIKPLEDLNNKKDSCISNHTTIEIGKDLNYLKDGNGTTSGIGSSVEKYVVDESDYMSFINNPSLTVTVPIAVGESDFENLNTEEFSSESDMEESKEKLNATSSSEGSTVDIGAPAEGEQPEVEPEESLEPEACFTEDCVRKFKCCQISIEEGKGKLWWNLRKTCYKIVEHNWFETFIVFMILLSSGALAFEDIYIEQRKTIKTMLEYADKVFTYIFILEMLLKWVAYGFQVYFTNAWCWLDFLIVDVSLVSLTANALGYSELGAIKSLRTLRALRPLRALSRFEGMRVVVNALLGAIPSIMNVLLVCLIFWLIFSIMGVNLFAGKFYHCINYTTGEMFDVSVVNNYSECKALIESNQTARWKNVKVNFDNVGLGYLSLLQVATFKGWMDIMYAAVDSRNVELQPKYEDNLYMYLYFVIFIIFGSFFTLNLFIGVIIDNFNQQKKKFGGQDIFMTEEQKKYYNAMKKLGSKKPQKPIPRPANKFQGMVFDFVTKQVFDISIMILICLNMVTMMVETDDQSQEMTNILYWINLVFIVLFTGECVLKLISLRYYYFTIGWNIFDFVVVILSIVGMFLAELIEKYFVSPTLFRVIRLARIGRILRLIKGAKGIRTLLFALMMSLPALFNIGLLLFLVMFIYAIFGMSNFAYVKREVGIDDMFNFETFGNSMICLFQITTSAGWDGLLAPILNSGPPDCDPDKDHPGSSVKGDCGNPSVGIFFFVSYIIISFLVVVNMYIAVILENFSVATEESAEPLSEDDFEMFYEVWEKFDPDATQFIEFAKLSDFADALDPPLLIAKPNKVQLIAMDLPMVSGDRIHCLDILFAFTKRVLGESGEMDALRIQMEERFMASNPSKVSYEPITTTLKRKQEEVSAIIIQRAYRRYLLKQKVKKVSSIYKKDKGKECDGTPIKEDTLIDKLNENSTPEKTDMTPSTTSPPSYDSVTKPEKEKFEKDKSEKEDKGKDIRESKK

[4] = biological target: Sodium channel protein type 5 subunit alpha (Homo sapiens, UniProt Q14524); assay: Inhibition of Nav1.5 (unknown origin) expressed in xenopus oocytes at -80 mV holding potential by two-electrode voltage-clamp method; assay type: cell-based
Sodium channel protein type 5 subunit alpha, sequence (Q14524 whole entry): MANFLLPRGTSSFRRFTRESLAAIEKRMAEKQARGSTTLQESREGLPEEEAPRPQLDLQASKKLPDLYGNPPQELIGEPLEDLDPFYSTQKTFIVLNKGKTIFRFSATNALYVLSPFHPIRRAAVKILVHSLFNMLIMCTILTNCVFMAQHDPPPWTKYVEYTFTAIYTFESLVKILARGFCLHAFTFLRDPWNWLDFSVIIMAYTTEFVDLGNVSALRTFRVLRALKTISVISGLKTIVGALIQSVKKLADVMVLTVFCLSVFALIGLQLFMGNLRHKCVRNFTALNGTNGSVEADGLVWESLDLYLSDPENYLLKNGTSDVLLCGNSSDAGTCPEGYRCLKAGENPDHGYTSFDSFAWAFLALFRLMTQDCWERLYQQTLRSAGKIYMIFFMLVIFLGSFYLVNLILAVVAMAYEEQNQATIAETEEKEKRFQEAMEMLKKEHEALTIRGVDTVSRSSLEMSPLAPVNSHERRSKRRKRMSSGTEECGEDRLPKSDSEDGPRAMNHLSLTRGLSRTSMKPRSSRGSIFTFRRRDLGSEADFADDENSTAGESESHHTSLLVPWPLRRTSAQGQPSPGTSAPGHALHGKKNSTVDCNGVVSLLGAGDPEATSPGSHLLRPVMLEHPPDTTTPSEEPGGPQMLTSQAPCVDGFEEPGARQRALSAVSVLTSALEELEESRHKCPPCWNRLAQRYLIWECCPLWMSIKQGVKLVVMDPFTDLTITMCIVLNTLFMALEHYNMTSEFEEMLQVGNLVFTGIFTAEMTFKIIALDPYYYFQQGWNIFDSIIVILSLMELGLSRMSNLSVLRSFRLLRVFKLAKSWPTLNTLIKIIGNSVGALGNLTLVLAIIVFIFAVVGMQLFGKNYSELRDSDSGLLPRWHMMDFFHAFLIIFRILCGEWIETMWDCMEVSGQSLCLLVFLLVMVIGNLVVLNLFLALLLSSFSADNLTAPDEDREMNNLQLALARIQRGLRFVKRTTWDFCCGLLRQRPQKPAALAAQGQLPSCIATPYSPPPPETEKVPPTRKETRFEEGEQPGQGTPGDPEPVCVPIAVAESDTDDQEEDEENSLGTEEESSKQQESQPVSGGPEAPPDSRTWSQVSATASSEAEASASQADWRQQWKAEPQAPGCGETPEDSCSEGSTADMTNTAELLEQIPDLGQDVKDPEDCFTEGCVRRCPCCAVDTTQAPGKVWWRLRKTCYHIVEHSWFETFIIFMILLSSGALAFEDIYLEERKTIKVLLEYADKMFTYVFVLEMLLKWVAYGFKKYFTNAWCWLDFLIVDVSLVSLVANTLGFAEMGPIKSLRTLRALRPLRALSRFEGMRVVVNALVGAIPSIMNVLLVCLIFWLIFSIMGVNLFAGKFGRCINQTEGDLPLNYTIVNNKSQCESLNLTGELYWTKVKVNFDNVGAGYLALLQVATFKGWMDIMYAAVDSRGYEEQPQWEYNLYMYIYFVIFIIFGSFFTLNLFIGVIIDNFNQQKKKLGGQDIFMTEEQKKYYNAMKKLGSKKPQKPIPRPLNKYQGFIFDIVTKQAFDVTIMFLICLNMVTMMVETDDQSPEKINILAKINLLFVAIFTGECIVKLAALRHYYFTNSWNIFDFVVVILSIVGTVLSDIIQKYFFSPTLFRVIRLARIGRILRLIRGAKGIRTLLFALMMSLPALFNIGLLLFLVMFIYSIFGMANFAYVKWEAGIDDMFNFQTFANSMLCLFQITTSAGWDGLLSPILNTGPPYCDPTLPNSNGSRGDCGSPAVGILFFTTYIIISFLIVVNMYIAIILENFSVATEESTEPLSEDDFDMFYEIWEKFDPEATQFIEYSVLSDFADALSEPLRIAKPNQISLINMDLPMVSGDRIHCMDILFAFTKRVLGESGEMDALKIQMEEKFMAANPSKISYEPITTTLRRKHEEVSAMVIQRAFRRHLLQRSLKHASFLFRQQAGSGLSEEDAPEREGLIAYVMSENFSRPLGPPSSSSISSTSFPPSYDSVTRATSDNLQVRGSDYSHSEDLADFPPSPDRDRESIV

[5] = biological target: Sodium channel protein type 8 subunit alpha (Homo sapiens, UniProt Q9UQD0); assay: Inhibition of Nav1.6 (unknown origin)
[6] = biological target: T1, Transient receptor potential cation channel subfamily V member 6 (Homo sapiens, UniProt Q9H1D0); assay: Inhibition of TRPV6 (unknown origin) expressed in HEK293 cells by whole cell patch clamp assay; assay type: cell-based
T1 sequence (Q9H1D0 whole entry): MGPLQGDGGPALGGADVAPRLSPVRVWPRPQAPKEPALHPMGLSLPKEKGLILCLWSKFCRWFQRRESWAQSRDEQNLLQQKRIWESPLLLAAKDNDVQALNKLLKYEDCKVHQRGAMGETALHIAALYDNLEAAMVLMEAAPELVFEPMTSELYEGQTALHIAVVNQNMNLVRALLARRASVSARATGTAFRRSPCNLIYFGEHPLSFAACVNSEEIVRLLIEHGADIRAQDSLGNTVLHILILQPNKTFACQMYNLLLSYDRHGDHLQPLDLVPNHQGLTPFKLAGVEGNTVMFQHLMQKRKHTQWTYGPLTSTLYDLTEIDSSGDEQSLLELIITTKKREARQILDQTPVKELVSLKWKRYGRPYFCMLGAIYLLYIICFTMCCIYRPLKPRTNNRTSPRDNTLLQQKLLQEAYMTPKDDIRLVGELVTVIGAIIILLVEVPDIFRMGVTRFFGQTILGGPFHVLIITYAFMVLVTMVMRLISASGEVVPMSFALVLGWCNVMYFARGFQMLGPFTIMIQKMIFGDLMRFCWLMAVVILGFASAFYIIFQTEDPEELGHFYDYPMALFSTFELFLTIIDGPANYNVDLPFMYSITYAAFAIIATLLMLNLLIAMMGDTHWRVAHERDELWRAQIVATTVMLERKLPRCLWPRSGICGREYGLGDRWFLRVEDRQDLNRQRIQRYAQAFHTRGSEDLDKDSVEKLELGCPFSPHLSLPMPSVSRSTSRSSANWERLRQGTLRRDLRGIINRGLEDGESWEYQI

[7] = biological target: DPP4 (dipeptidyl peptidase 4) (Homo sapiens, UniProt P27487); assay: Stability in plasma (unknown origin) assessed as DPP4-mediated drug degradation by measuring half life; assay type: ADME

Acetylcholine receptor subunit epsilon, sequence (Q04844 whole entry): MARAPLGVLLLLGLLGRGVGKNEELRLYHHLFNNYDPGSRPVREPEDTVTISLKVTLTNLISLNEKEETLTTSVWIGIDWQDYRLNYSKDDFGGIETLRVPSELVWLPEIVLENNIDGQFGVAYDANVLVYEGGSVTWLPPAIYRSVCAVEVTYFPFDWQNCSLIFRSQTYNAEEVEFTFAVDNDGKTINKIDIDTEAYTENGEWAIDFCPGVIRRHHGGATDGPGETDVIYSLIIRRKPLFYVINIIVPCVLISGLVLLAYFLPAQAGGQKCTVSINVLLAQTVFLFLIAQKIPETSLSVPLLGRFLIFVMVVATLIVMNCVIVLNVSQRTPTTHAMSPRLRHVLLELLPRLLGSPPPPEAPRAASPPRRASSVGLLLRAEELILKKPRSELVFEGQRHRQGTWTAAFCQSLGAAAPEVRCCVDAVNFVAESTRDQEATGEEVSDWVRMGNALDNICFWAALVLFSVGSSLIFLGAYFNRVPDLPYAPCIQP

Question: For `CC[C@H](C)[C@H](NC(=O)[C@H](Cc1ccc(O)cc1)NC(=O)[C@H](Cc1cnc[nH]1)NC(=O)[C@@H]1CSSC[C@H](NC(=O)[C@@H]2CCCN2C(=O)[C@H](CCCNC(=N)N)NC(=O)[C@H](CC(C)C)NC(=O)[C@H](CC(=O)O)NC(=O)[C@@H]2CCCN2C(=O)[C@H](CCCCN)NC(=O)CNC(=O)CN)C(=O)N[C@@H](Cc2cnc[nH]2)C(=O)N2CCC[C@H]2C(=O)N2CCC[C@H]2C(=O)N1)C(=O)N1CCC[C@H]1C(=O)N[C@@H](CCCNC(=N)N)C(=O)N1CCC[C@H]1C(=O)N[C@@H](CCCCN)C(=O)N1CCC[C@H]1C(=O)N[C@@H](CCCNC(=N)N)C(=O)O` (H-GGKPDLRPCHPPCHYIPRPKPR-OH; disulfide 9-13), which IC50 [1] is on record?
Answer: 0.05 µM

Question: And the LD50 [2]?
Answer: 0.33 mg/kg

Question: Which results are given for `CSCC[C@@H]1NC(=O)CNC(=O)[C@H](CCC(=O)O)NC(=O)[C@@H]2CSSC[C@H](NC(=O)[C@@H](N)Cc3ccc(O)cc3)C(=O)N[C@@H](CCC(N)=O)C(=O)N[C@@H](CCCCN)C(=O)N[C@@H](Cc3c[nH]c4ccccc34)C(=O)N[C@@H](CCSC)C(=O)N[C@@H](Cc3c[nH]c4ccccc34)C(=O)N[C@@H]([C@@H](C)O)C(=O)N[C@H]3CSSC[C@H](NC(=O)[C@H](C(C)C)NC1=O)C(=O)N[C@@H](CCCNC(=N)N)C(=O)N[C@@H](CC(C)C)C(=O)N[C@@H](Cc1c[nH]c4ccccc14)C(=O)N[C@H](C(=O)N[C@@H](CCCCN)C(=O)N[C@@H](CCCCN)C(=O)N[C@@H](CCCCN)C(=O)N[C@@H](CC(C)C)C(=O)N[C@@H](Cc1c[nH]c4ccccc14)C(=O)O)CSSC[C@H](NC(=O)[C@H](CCCCN)NC(=O)[C@H](CCCNC(=N)N)NC(=O)[C@H](CCC(=O)O)NC(=O)[C@H](CO)NC(=O)[C@H](CC(=O)O)NC3=O)C(=O)N2`?
Answer: IC50 [3]: 0.041 µM; IC50 [4]: 0.079 µM; IC50 [5]: 0.026 µM

Question: Which IC50 [6] does the source give for H-KEFLHPSKVDLPR-OH [SOR-C13] here?
Answer: 0.014 µM

Question: With “H-SDGTFTSDLSKQMEEEAVRLFIEWLKNGGPSGAPPPS-NH2” as the compound, how does the half-life [7] read?
Answer: 2 min
